Common to all, as to type: cell-based
Test [1] concerns the target T1, IKZF1 ZNF2_ZNF3 Q1F degron-tagged CD19 CAR (Homo sapiens, UniProt Q13422, Q146F).
T1 construct: ZNF2_ZNF3 Q1F degron (GERPFFCNQCGASFTQKGNLLRHIKLHSGEKPFKCHLCNYACRRRDALTGHLRTHS); fused on or other part: anti-CD19 scFv, CD28 transmembrane domain, 4-1BB costimulatory domain, CD3 zeta signaling domain (the CAR that carries the degron), and Nluc
The experiment in a line: Degradation of Q1F degron-tagged CD19 CAR in Jurkat cells (flow cytometry of CAR levels). The conditions noted are these: for DC50: Jurkat cells expressing CD19 CAR tagged with IKZF1 ZNF2_ZNF3 Q1F, 18 hours at 37° C., CAR levels normalized to untreated cells, read-out: Q1F Jurkat IC50; for Dmax: Ymax is the % protein degraded, Jurkat cells expressing Q1F degron-tagged CD19 CAR, 18 hours, read-out: Q1F Jurkat-YMax. In a few lines:
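Jurkat cells were lentivirally transduced with an anti-CD19 scFv/CD28 TM/4-1BB/CD3ζ CAR tagged with an IKZF1 ZNF2_ZNF3 Q1F degron–Nluc, then treated with compound titrations for 18 h at 37 °C. CAR surface levels were stained (20 min, 4 °C), read by flow cytometry and normalised to untreated cells. EC50 came from a four-parameter logistic fit; Ymin is the minimum % CAR remaining.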
Background: Flow cytometry measures light scatter and fluorescence of single cells or particles in a stream.

The target of test [2] is T2, Helios (Homo sapiens, UniProt Q96SW2+Q9UKS7).
T2 construct: endogenous in cells; host or cells: Jurkat cells, CRISPR/Cas9 knock-in of HiBit at the IKZF2 locus
T2 sequence (Q9UKS7 whole entry): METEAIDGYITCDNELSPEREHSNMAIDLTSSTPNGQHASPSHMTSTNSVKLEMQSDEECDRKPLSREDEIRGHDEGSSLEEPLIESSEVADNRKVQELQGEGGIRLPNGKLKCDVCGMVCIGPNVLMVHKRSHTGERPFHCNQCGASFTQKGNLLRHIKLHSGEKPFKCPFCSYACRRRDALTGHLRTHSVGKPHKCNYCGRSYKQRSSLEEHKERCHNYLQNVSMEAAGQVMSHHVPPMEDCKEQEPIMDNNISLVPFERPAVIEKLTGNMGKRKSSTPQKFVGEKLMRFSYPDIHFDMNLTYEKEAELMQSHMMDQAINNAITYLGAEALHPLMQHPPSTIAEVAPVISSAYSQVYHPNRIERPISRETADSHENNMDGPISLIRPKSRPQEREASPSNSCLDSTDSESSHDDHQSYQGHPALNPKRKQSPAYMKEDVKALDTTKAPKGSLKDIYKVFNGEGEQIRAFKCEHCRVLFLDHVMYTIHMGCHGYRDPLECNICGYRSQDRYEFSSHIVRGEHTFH
T2 sequence (Q96SW2 whole entry): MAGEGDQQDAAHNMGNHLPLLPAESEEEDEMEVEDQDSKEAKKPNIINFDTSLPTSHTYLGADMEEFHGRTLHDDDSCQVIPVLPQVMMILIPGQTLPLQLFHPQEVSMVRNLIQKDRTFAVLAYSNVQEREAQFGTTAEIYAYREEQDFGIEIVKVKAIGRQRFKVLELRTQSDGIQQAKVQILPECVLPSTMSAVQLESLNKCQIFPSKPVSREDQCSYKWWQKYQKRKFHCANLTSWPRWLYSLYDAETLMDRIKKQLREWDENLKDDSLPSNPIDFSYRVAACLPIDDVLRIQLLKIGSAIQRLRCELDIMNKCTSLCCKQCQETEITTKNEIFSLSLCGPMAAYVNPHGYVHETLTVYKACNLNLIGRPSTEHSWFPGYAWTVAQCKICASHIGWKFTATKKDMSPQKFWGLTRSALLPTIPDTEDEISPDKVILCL
T2 sequence (Q16531 whole entry partner): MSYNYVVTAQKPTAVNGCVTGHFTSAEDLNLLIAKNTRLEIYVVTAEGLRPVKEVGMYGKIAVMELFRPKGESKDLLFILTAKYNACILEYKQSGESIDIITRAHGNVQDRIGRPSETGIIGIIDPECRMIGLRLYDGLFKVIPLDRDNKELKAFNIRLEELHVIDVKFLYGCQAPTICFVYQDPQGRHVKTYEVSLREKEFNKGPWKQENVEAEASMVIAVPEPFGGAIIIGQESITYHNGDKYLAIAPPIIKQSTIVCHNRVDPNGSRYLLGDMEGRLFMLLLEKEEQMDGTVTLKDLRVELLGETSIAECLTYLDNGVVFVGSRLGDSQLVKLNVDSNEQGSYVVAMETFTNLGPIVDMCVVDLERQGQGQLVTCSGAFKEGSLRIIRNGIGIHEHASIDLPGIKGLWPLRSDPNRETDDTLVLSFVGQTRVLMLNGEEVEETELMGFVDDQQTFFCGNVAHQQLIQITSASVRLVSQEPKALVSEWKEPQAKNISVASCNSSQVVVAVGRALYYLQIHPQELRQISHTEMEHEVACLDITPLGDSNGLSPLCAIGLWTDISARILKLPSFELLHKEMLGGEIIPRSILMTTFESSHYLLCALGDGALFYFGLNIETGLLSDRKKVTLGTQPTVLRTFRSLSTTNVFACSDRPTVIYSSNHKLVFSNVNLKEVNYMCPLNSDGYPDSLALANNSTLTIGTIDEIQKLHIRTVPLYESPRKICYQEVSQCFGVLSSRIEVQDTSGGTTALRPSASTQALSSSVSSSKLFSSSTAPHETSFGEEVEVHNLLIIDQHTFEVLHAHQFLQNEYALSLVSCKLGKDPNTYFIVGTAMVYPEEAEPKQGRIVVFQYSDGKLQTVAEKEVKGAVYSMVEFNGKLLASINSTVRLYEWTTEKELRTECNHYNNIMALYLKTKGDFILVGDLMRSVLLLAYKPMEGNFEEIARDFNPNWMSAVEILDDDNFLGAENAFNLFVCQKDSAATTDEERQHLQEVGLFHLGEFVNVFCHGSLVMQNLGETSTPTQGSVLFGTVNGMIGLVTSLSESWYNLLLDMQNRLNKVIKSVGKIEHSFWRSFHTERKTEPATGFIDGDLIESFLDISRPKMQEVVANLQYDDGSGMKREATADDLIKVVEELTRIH
Briefly: Helios degradation in Jurkat/Helios/HiBit cells (Nano-Glo luminescence). Conditions: for Helios Jurkat Hibit YMax: Ymax is the % protein degraded, 18 hr. The method in brief: (§1)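 Jurkat cells carrying CRISPR-knocked-in C-terminal HiBit-tagged endogenous IKZF2 were treated with compound in DMEM/10% FCS (10,000 cells/well) for 18 h at 37 °C. HiBit signal was read by Nano-Glo luminescence after 30 min at RT. EC50 for degradation came from a four-parameter logistic fit, with Ymax as % protein degraded.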

Test [3] concerns the target T3, Helios (Homo sapiens, UniProt Q9UKS7).
T3 construct: endogenous in cells; host or cells: Jurkat cells, CRISPR/Cas9 knock-in of HiBit at the IKZF2 locus
Described as above. Conditions: 18 hr, read-out: Helios Jurkat Hibit IC50. In a few lines:
as §1

T1 sequence (Q13422 whole entry Q146F, the tested form may be a part): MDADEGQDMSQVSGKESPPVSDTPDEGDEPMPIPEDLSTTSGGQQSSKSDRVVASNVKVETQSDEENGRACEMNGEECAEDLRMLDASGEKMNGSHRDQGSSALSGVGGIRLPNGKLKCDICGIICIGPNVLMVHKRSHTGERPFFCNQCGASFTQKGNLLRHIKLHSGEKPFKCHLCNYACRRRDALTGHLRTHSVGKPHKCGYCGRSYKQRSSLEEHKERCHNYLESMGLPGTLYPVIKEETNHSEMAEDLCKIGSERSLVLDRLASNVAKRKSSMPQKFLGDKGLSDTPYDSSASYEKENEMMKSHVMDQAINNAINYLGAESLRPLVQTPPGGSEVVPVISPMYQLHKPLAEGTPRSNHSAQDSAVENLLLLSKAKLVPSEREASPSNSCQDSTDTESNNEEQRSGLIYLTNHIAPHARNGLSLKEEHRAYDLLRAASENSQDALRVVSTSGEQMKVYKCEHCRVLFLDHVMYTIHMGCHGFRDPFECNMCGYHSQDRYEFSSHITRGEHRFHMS
T3 sequence (Q9UKS7 whole entry): as the sequence (Q9UKS7 whole entry) above
T3 sequence (Q96SW2 whole entry, further chain): as the sequence (Q96SW2 whole entry) above
T3 sequence (Q16531 whole entry partner): as the sequence (Q16531 whole entry partner) above

For `O=C1CCC(N2Cc3c(cc(F)c(C4CCN(Cc5ccc6[nH]ncc6c5)CC4)c3F)C2=O)C(=O)N1` (stereo not drawn) [Compound 63, 3-(5-(1-((1H-indazol-5-yl)methyl)piperidin-4-yl)-4,6-difluoro-1-oxoisoindolin-2-yl)piperidine-2,6-dione], in test [1], the DC50 was 0.000103 µM and the Dmax amounted to 93%. For the same compound, the “Helios Jurkat Hibit YMax” value at Helios [2] was 55.0199%. In addition, the DC50 at Helios [3] worked out at 3.31 µM.
On the same counts, the results for `O=C1CCC(N2Cc3c(cc(F)c(CN4CCN(Cc5ccc6c(c5)OCCO6)CC4)c3F)C2=O)C(=O)N1` (stereo not drawn) [Compound 76, 3-(5-((4-((2,3-dihydrobenzo[b][1,4]dioxin-6-yl)methyl)piperazin-1-yl)methyl)-4,6-difluoro-1-oxoisoindolin-2-yl)piperidine-2,6-dione] are 0.00489 µM, 88.8%, 72.1901% and 0.0063 µM.
As for `Cc1ccc(CN2CCC(c3c(F)cc4c(c3F)CN(C3CCC(=O)NC3=O)C4=O)CC2)cc1F` (stereo not drawn) [Compound 46, 3-(4,6-difluoro-5-(1-(3-fluoro-4-methylbenzyl)piperidin-4-yl)-1-oxoisoindolin-2-yl)piperidine-2,6-dione], in test [1], the DC50 was found to be 0.000112 µM and the Dmax was 91.8%. Besides, the “Helios Jurkat Hibit YMax” value on Helios [2] is 50.8729%. Also, the DC50 on Helios [3] was 6520 µM.
On the same counts, the results for `CC1(C)Cc2cccc(CN3CCN(Cc4c(F)cc5c(c4F)CN(C4CCC(=O)NC4=O)C5=O)CC3)c2O1` (stereo not drawn) [Compound 75, 3-(5-((4-((2,2-dimethyl-2,3-dihydrobenzofuran-7-yl)methyl)piperazin-1-yl)methyl)-4,6-difluoro-1-oxoisoindolin-2-yl)piperidine-2,6-dione] are 0.00332 µM, 89%, 65.5325% and 0.0651 µM.
For the compound `O=C1CCC(N2Cc3c(cc(F)c(C4(O)CCN(Cc5ccc(C(F)(F)F)cc5)CC4)c3F)C2=O)C(=O)N1` (stereo not drawn) [Compound 11, 3-(4,6-difluoro-5-(4-hydroxy-1-(4-(trifluoromethyl)benzyl)piperidin-4-yl)-1-oxoisoindolin-2-yl)piperidine-2,6-dione], in test [1], the DC50 is 0.00491 µM and the Dmax is 83.5%. Also, at Helios [2] (read-out: Helios Jurkat Hibit IC50, 18 hr), the DC50 is no less than 10 µM.
Consider `Cc1cc(-c2cc(F)c3c(c2)CN(C2CCC(=O)NC2=O)C3=O)nc(N)c1C` (stereo not drawn) [Compound 16, 3-(5-(6-amino-4,5-dimethylpyridin-2-yl)-7-fluoro-1-oxoisoindolin-2-yl)piperidine-2,6-dione], for which, in test [1], the DC50 was 0.00267 µM and the Dmax was found to be 92.9%. Also, the “Helios Jurkat Hibit YMax” value on Helios [2] came out at 64.8253%. Further, the DC50 at Helios [3] amounted to 0.012 µM.
Regarding `COCCOCCN1CCC(c2c(F)cc3c(c2F)CN(C2CCC(=O)NC2=O)C3=O)CC1` (stereo not drawn) [Compound 100, 3-(4,6-difluoro-5-(1-(2-(2-methoxyethoxy)ethyl)piperidin-4-yl)-1-oxoisoindolin-2-yl)piperidine-2,6-dione], in test [1], the DC50 turned out to be 0.0226 µM and the Dmax came out at 75.5%. Moreover, on Helios [3], the DC50 is no less than 10 µM.
As for `O=C1CCC(N2Cc3c(cc(F)c(C4(O)CCN(Cc5ccc6ccccc6n5)CC4)c3F)C2=O)C(=O)N1` (stereo not drawn) [Compound 29, 3-(4,6-difluoro-5-(4-hydroxy-1-(quinolin-2-ylmethyl)piperidin-4-yl)-1-oxoisoindolin-2-yl)piperidine-2,6-dione], in test [1], the DC50 is 0.00642 µM and the Dmax came to 87%. For the same compound, at Helios [3], the DC50 is no less than 10 µM.
Take `O=C1CCC(N2Cc3c(cc(F)c(C4CCN(Cc5ccc(C(F)(F)F)cc5O)CC4)c3F)C2=O)C(=O)N1` (stereo not drawn) [Compound 55, 3-(4,6-difluoro-5-(1-(2-hydroxy-4-(trifluoromethyl)benzyl)piperidin-4-yl)-1-oxoisoindolin-2-yl)piperidine-2,6-dione]: in test [1], the DC50 is 0.000468 µM and the Dmax came out at 88.7%. Moreover, the DC50 on Helios [3] is no less than 10 µM.
On to `O=C1CCC(N2Cc3c(cc(F)c(C4CCN(CCCOc5ccccc5)CC4)c3F)C2=O)C(=O)N1` (stereo not drawn) [Compound 118, 3-(4,6-difluoro-1-oxo-5-(1-(3-phenoxypropyl)piperidin-4-yl)isoindolin-2-yl)piperidine-2,6-dione], for which, in test [1], the DC50 was found to be 0.00286 µM and the Dmax amounted to 83%. For the same compound, at Helios [3], the DC50 is no less than 10 µM.
As for `O=C1CCC(N2Cc3c(cc(F)c(C4CCN(Cc5ccc(-c6ccccc6)o5)CC4)c3F)C2=O)C(=O)N1` (stereo not drawn) [Compound 5, 3-(4,6-difluoro-1-oxo-5-(1-((5-phenylfuran-2-yl)methyl)piperidin-4-yl)isoindolin-2-yl)piperidine-2,6-dione], in test [1], the DC50 stood at 0.0057 µM and the Dmax was 85.8%. In addition, the DC50 on Helios [3] is no less than 10 µM.
As to `Cc1nc(CN2CCC(c3c(F)cc4c(c3F)CN(C3CCC(=O)NC3=O)C4=O)CC2)c(C)o1` (stereo not drawn) [Compound 56, 3-(5-(1-((2,5-dimethyloxazol-4-yl)methyl)piperidin-4-yl)-4,6-difluoro-1-oxoisoindolin-2-yl)piperidine-2,6-dione], in test [1], the DC50 worked out at 0.000571 µM and the Dmax amounted to 84.4%. At Helios [3], the DC50 is no less than 10 µM.
On the same counts, the results for `O=C1CCC(N2Cc3c(cc(F)c(C4(O)CCN(Cc5ccc(C(F)F)cc5)CC4)c3F)C2=O)C(=O)N1` (stereo not drawn) [Compound 19, 3-(5-(1-(4-(difluoromethyl)benzyl)-4-hydroxypiperidin-4-yl)-4,6-difluoro-1-oxoisoindolin-2-yl)piperidine-2,6-dione] are 0.00541 µM, 83.3% and no less than 10 µM.
With `O=C1CCC(N2Cc3cc(C4CCN(Cc5ccc6ncsc6c5)CC4)c(F)cc3C2=O)C(=O)N1` (stereo not drawn) [Compound 81, 3-(5-(1-(benzo[d]thiazol-6-ylmethyl)piperidin-4-yl)-6-fluoro-1-oxoisoindolin-2-yl) piperidine-2,6-dione], in test [1], the DC50 turned out to be 0.00306 µM and the Dmax turned out to be 93%. In addition, the DC50 on Helios [3] was no less than 10 µM.
Turning to `O=C1CCC(N2Cc3c(cc(F)c(C4(O)CCN(Cc5ccccc5C(F)(F)F)CC4)c3F)C2=O)C(=O)N1` (stereo not drawn) [Compound 32, 3-(4,6-difluoro-5-(4-hydroxy-1-(2-(trifluoromethyl)benzyl)piperidin-4-yl)-1-oxoisoindolin-2-yl)piperidine-2,6-dione], in test [1], the DC50 turned out to be 0.00954 µM and the Dmax was determined as 80.2%. Further, the DC50 at Helios [3] was no less than 10 µM.
The like results for `O=C1CCC(N2Cc3c(cc(F)c(C4(O)CCN(Cc5cc(C(F)(F)F)cc(C6CC6)n5)CC4)c3F)C2=O)C(=O)N1` (stereo not drawn) [Compound 17, 3-(5-(1-((6-cyclopropyl-4-(trifluoromethyl)pyridin-2-yl)methyl)-4-hydroxypiperidin-4-yl)-4,6-difluoro-1-oxoisoindolin-2-yl)piperidine-2,6-dione] were, in that order, 0.0289 µM, 69.2% and no less than 10 µM.
Take `O=C1CCC(N2Cc3c(cc(F)c(C4CCN(Cc5cccnc5)CC4)c3F)C2=O)C(=O)N1` (stereo not drawn) [Compound 107, 3-(4,6-difluoro-1-oxo-5-(1-(pyridin-3-ylmethyl)piperidin-4-yl)isoindolin-2-yl)piperidine-2,6-dione]: in test [1], the DC50 amounted to 0.0021 µM and the Dmax was found to be 89.7%. Besides, the DC50 at Helios [3] was no less than 10 µM.
Turning to `O=C1CCC(N2Cc3c(cc(F)c(C4CCN(Cc5nnc(-c6ccccc6)o5)CC4)c3F)C2=O)C(=O)N1` (stereo not drawn) [Compound 120, 3-(4,6-difluoro-1-oxo-5-(1-((5-phenyl-1,3,4-oxadiazol-2-yl)methyl)piperidin-4-yl)isoindolin-2-yl)piperidine-2,6-dione], in test [1], the DC50 is 0.165 µM and the Dmax is 65.8%. The DC50 on Helios [3] is no less than 10 µM.
Turning to `O=C1CCC(N2Cc3c(cc(F)c(C4CCN(Cc5ccc6[nH]ccc6c5)CC4)c3F)C2=O)C(=O)N1` (stereo not drawn) [Compound 61, 3-(5-(1-((1H-indol-5-yl)methyl)piperidin-4-yl)-4,6-difluoro-1-oxoisoindolin-2-yl)piperidine-2,6-dione], in test [1], the DC50 was 0.000204 µM and the Dmax is 93.4%. Besides, at Helios [2], the “Helios Jurkat Hibit YMax” value worked out at 59.5442%. Also, the DC50 on Helios [3] came to 0.152 µM.
On to `CC(C)CCN1CCC(c2c(F)cc3c(c2F)CN(C2CCC(=O)NC2=O)C3=O)CC1` (stereo not drawn) [Compound 113, 3-(4,6-difluoro-5-(1-isopentylpiperidin-4-yl)-1-oxoisoindolin-2-yl)piperidine-2,6-dione], for which, in test [1], the DC50 came to 0.00273 µM and the Dmax was 82.5%. Further, the DC50 at Helios [3] was no less than 10 µM.
In the case of `O=C1CCC(N2Cc3c(cc(F)c(C4(O)CCN(CC5CCCCC5)CC4)c3F)C2=O)C(=O)N1` (stereo not drawn) [Compound 33, 3-(5-(1-(cyclohexylmethyl)-4-hydroxypiperidin-4-yl)-4,6-difluoro-1-oxoisoindolin-2-yl)piperidine-2,6-dione], the figures for the DC50 (in test [1]; at Helios [3]) were 0.192 µM and no less than 10 µM, respectively. Moreover, the Dmax in test [1] turned out to be 60.4%.

These data come from patent publication US20240327381A1, “Compounds and Compositions for Selective Degradation of Engineered Proteins” (Celgene Corporation, priority 2023, published 2024).
